≈ marks a conversion by molar mass, not a printed value. Where “and” joins values, the source holds several entries; their conditions need not be identical. Equal entries are not always repeated. Structures can show the parent of a compound that is named as a salt.
Key:
[1] = system: cells of the A549 human line (non-small-cell lung cancer); test: Cytotoxicity test: inhibition of growth of A549 cells (ATP-Lite luminescence); type: cell-based; settings: 48 hours incubation
Description: The test used is the inhibition of growth of cells of the A549 human line (non-small-cell lung cancer):
The A549 tumour cells are seeded in a 96-well plate in RPMI 1640 medium without phenol red (Seromed) to which 5% of foetal calf serum is added (100 μl/well, 125×10^4 cells/ml). After incubating at 37° C. for 24 hours in an incubator comprising 5% CO2, the medium is replaced with that comprising the test compound, after which the plates are incubated for an additional 48 hours. Cell survival is evaluated by measuring the luminescence after release of ATP into the medium using the cell lysis, luciferase and luciferin solutions present in the ATP-Lite-M™ kit as is recommended by the manufacturer (Packard, Rungis, France). Each experimental condition was tested at least three times as six identical copies. The results, expressed as IC50 (M), are collated in Table I and show the cytotoxicity of the compounds.

[2] = Solubility in water of the hydrochloride; type: physicochemical; settings: water-soluble hydrochloride
Source text: The compounds of the present invention have a solubility in water which makes possible a form of administration by infusion, by injection or by the oral route. They are provided in the form of their water-soluble hydrochloride, the solubility values of which are collated in Table II.

DNA in A549 cells = test: Comets test for detection of breakages of the DNA in cellulo; type: cell-based, human; settings: 1 hour with 10 μM compound
Description: b) Test for Detection of Breakages of the DNA in Cellulo:
The comets test is used. The breakages of the DNA are detected in the A549 cells after incubating for 1 hour with 10 μM of each of the test compounds. […] For each compound, twenty-five cells are analysed and the mean Tail Moment (TM) is calculated using Komet software (Kinetic Imaging, UK).

P388 murine leukaemia = test: P388 experimental tumour model (survival); type: in vivo, mouse; settings: CD2F1 mice, P388 i.v. day 0, single intraperitoneal injection day 1; optimum dose (mg/kg) in brackets
Description: (§1) The model used is P388 murine leukaemia (Tumor Models in Cancer Research., Teicher, B. A. ed., Humana Press Inc., Totowa, N.J., pp. 23-40, 2002), which is maintained by successive intraperitoneal transplantations in DBA/2 mice (DBA/2JIco, Charles River), as was described in prior art documents (Classic in vivo cancer models: Three examples of mouse models used in experimental therapeutics. Current Protocols in Pharmacology Unit 5.24: 5.24.1-5.24.16, 2001).
The experiment is carried out according to a protocol already described in prior art documents (Cancer Chemother. Pharmacol., 1998, 41, 437-447). This consists in implanting 10^6 cells of P388 leukaemia per mouse into C2DF1 hybrid mice (CD2F1/CrlBR, Charles River, St Aubin-les-Elbeuf, France) intravenously on day zero. After randomizing the animals in the treatment and control cages, the compounds to be evaluated are administered in a single injection intraperitoneally the day after the tumour graft, on day 1. The animals are subsequently monitored every day, weighed twice weekly and any clinical reaction is recorded. The survival is the parameter for evaluation of the antitumour activity. The increase in survival is defined by the T/Csurvival ratio (%), corresponding to: (Median of survival of the treated group/Median of survival of the control group)×100. A T/Csurvival ratio is calculated for each dose administered and the greatest value obtained represents the maximum increase in survival achieved (maximum activity), which is defined by the optimum T/Csurvival ratio. The results are illustrated in Table II, in which the optimum T/Csurvival values appear. […] Specifically, according to the criteria of the NCI (National Cancer Institute), a T/Csurvival value is regarded as significant if it is at least greater than 120% (Semin. Oncol., 1981, 8, 349-361). The relative loss in body weight of the animals, associated with the optimum activity of the compounds, is much less than the toxicity threshold, according to the criteria of the NCI (Ann. Oncol., 1994, 5, 415-422).

[3] = system: MX-1 human mammary carcinoma; test: MX-1 experimental tumour model (tumour volume); type: in vivo, mouse
Source text: The model used is a human mammary carcinoma (Developmental Therapeutics Program, Division of Cancer Treatment, National Cancer Institute, In vivo Cancer Models 1976-1982. NIH Publication No. 84 2635, Washington D.C.: United States Government Printing Office, 1984), which is maintained by successive subcutaneous transplantations in Swiss Nude mice (Ico: Swiss-nu/nu, Iffa Credo, L'Arbresle, France), as was described above (Classic in vivo cancer models: Three examples of mouse models used in experimental therapeutics. Current Protocols in Pharmacology Unit 5.24: 5.24.1-5.24.16, 2001).
The experiment is carried out according to a protocol already described above (Cancer Chemother. Pharmacol., 1998, 41, 437-447). […] After randomizing the animals in their treatment and control cages, the compounds to be evaluated are administered intraperitoneally on day 7, 9, 11, 14, 16 and 18 after the grafting of the tumour. The animals are subsequently monitored every day, weighed twice weekly and any clinical reaction is recorded. The size of the tumour is measured three times weekly during the experiment. The tumour volume is calculated and the activity of the compounds on the size of the tumour is defined by the T/Cvolume ratio (%), corresponding to (Median tumour volume of the treated group/Median tumour volume of the control group)×100.

B16 melanoma = test: B16 experimental tumour model (tumour volume); type: in vivo, mouse; settings: C57BL/6 mice, s.c. B16, intraperitoneal on days 3, 5, 7 and 10; dose (mg/kg) in brackets
Description: as §1, with “the B16 melanoma” for “P388 murine leukaemia”, “subcutaneous” for “intraperitoneal”, “C57BL/6” for “DBA/2”, “(C57BL/6 NCrlBR,” for “(DBA/2JIco,”, “River, St Aubin-les-Elbeuf, France),” for “River),”, “above” for “in prior art documents”
The experiment is carried out according to a protocol already described above. B16 tumour tissue is ground and homogenized in a 0.9% sterile sodium chloride solution using a Dounce homogenizer and then C57BLJ6 mice are inoculated subcutaneously into the flank with 0.5 ml of this 1 g/ml preparation on day zero. After randomizing the animals in the treatment and control cages, the compounds to be evaluated are administered intraperitoneally on days 3, 5, 7 and 10 after the grafting of the tumour. The animals are subsequently monitored every day, weighed twice weekly and any clinical reaction is recorded. The size of the tumour is measured three times weekly during the experiment. The tumour volume is calculated and the activity of the compounds on the size of the tumour is defined by the T/Cvolume ratio (%), corresponding to (Median tumour volume of the treated group/Median tumour volume of the control group)×100. […]

For `COc1cc(C2c3cc4c(cc3C(NC(=O)CN3CCCCC3)C3COC(=O)C23)OCO4)cc(OC)c1O` (stereo not drawn) (as salt: hydrochloride), the melting point was 269 to 270 °C.
Compound `COc1cc(C2c3cc4c(cc3C(NC(=O)CNCCN)C3COC(=O)C23)OCO4)cc(OC)c1O` (stereo not drawn) (as salt: hydrochloride) has a melting point of 236 °C.
In the case of `COc1cc(C2c3cc4c(cc3C(NC(=O)CNCCCN)C3COC(=O)C23)OCO4)cc(OC)c1O` (stereo not drawn) (as salt: hydrochloride), the melting point is reported as 219 °C.
Compound `COc1cc(C2c3cc4c(cc3C(NC(=O)CNCCCNCCCCNCCCN)C3COC(=O)C23)OCO4)cc(OC)c1OC` (stereo not drawn) (as salt: hydrochloride) has a melting point of 209 °C.
For `COc1cc(C2c3cc4c(cc3C(NC(=O)CNCCCCNCCCN)C3COC(=O)C23)OCO4)cc(OC)c1O` (stereo not drawn) (as salt: hydrochloride), the melting point was 199 °C.
Compound `COc1cc(C2c3cc4c(cc3C(NC(=O)CN)C3COC(=O)C23)OCO4)cc(OC)c1O` (stereo not drawn) (as salt: hydrochloride) [Example 22, 2-amino-N-[9-(4-hydroxy-3,5-dimethoxyphenyl)-8-oxo-5,5a,6,8,8a,9-hexahydrofuro[3′,4′:6,7]naphtho[2,3-d][1,3]dioxol-5-yl]acetamide] has a melting point of 236 °C.
For `COc1cc(C2c3cc4c(cc3C(NC(=O)CNCCCNCCCCN)C3COC(=O)C23)OCO4)cc(OC)c1O` (stereo not drawn) (as salt: hydrochloride) [Example 31, 2-[3-(4-aminobutylamino)propylamino]-N-[9-(4-hydroxy-3,5-dimethoxyphenyl)-8-oxo-5,5a,6,8,8a,9-hexahydrofuro[3′,4′:6,7]naphtho[2,3-d][1,3]dioxol-5-yl]acetamide], the melting point was 255 °C.
With `COc1cc(C2c3cc4c(cc3C(NC(=O)CNCCN(C)C)C3COC(=O)C23)OCO4)cc(OC)c1O` (stereo not drawn) [Example 9, 2-(2-dimethylaminoethylamino)-N-[9-(4-hydroxy-3,5-dimethoxyphenyl)-8-oxo-5,5a,6,8,8a,9-hexahydrofuro[3′,4′:6,7]naphtho[2,3-d][1,3]dioxol-5-yl]acetamide] the IC50 ([1]; Homo sapiens) was 6000 nM, the solubility [2] was 100 mg/mL (≈ 190 mM) and the “TM (mean Tail Moment with respect to the TM of etoposide, taken to be unity)” value (shortened to “TM”) (DNA in A549 cells) was 2.81. For the same compound, the “P388 Model Optimum T/Csurvival (%)” value (P388 murine leukaemia) was 157 [10] %.
In the case of `COc1cc(C2c3cc4c(cc3C(NC(=O)CN(C)C)C3COC(=O)C23)OCO4)cc(OC)c1O` (stereo not drawn) [Example 12, 2-dlmethylamino-N-[9-(4-hydroxy-3,5-dimethoxyphenyl)-8-oxo-5,5a,6,8,8a,9-hexahydrofuro[3′,4′:6,7]naphtho[2,3-d][1,3]dioxol-5-yl]acetamide], the IC50 [1] is reported as 200 nM, the “Solubility in water” value [2] is reported as 16 mg/mL (≈ 33 mM) and the “TM” value (DNA in A549 cells) is reported as 2.32. The “P388 Model Optimum T/Csurvival (%)” value (P388 murine leukaemia) was 157 [2.5] %.
In the case of `COc1cc(C2c3cc4c(cc3C(NC(=O)CN)C3COC(=O)C23)OCO4)cc(OC)c1O` (stereo not drawn) [Example 22, 2-amino-N-[9-(4-hydroxy-3,5-dimethoxyphenyl)-8-oxo-5,5a,6,8,8a,9-hexahydrofuro[3′,4′:6,7]naphtho[2,3-d][1,3]dioxol-5-yl]acetamide], the IC50 ([1]; Homo sapiens) is reported as 1000 nM and the “TM” value (DNA in A549 cells) is reported as 3.89.
With `COc1cc(C2c3cc4c(cc3C(NC(=O)CNCCCCN)C3COC(=O)C23)OCO4)cc(OC)c1O` (stereo not drawn) [Example 25, 2-(4-aminobutylamino)-N-[9-(4-hydroxy-3,5-dimethoxyphenyl)-8-oxo-5,5a,6,8,8a,9-hexahydrofuro[3′,4′:6,7]naphtho[2,3-d][1,3]dioxol-5-yl]acetamide] the IC50 ([1]; Homo sapiens) was 80 nM, the solubility [2] was 100 mg/mL (≈ 190 mM) and the “TM” value (DNA in A549 cells) was 1.09. The “MX-1 Model Optimum T/Cvolume (%)” value ([3]; Swiss Nude mice, s.c. MX-1, intraperitoneal on day 7, 9, 11, 14, 16 and 18, dose (mg/kg) in brackets) was 51% and 51 [10] %, the “B16 Model Optimum T/Cvolume (%)” value (B16 melanoma) was 25% and 25 [20] % and the “P388 Model Optimum T/Csurvival (%)” value (P388 murine leukaemia) was 129 [10] %.
With `COc1cc(C2c3cc4c(cc3C(NC(=O)CNCCCNCCCCNCCCN)C3COC(=O)C23)OCO4)cc(OC)c1O` (stereo not drawn) [Example 27, 2-{3-[4-(3-aminopropylamino)butylamino]propylamino}-N-[9-(4-hydroxy-3,5-dimethoxyphenyl)-8-oxo-5,5a,6,8,8a,9-hexahydrofuro[3′,4′:6,7]naphtho[2,3-d][1,3]dioxol-5-yl]acetamide] the IC50 ([1]; Homo sapiens) was 200 nM, the solubility [2] was 50 mg/mL (≈ 77.9 mM) and the “TM” value (DNA in A549 cells) was 1.22. For the same compound, the “effect on the tumour (in words)” value ([3]; MX-1, treatment of 2.5 mg/kg) was “complete eradication of the tumour” and the “P388 Model Optimum T/Csurvival (%)” value (P388 murine leukaemia) was 129 [7.5] %.
With `CCC1=C[C@@H]2CN(C1)Cc1c([nH]c3ccccc13)[C@@](C(=O)OC)(c1cc3c(cc1OC)N(C)[C@H]1[C@@](O)(C(=O)OC)[C@H](OC(C)=O)[C@]4(CC)C=CCN5CC[C@]31[C@@H]54)C2` [Vinorelbine, reference compound] the IC50 ([1]; Homo sapiens) was 3.7 nM and the “TM” value (DNA in A549 cells) was 0.
